Tests used:
[1] = tested on: HEK293 2.sus producing Human adenovirus 32; details: Example 6; CDM4HEK293 with or without β-alanine; MOI 0.1
Description: The entire volume is placed in a 50 ml tube, 29 mL of glutamine-containing 293 SFM II is added thereto and the cells are suspended. 5 mL of the cell suspension is placed in a Petri dish and culturing with shaking (50 rpm) is performed in a CO2 incubator (temperature setting: 37° C., CO2 concentration: 5%, model: MCO-170AICUV-PJ, Panasonic Healthcare Co., Ltd.) for 2-3 days. • (4) After culturing, the culture solution is recovered and transferred to a 15 mL centrifuge tube. • (5) Centrifugation is performed for 5 min (1000 rpm, 190×g, 24° C.) and the supernatant is removed. • (6) 1 ML of glutamine-containing 293 SFM II is added to the 15 mL centrifuge tube and the cells are resuspended. The cell number is measured using a hemocytometer and glutamine-containing 293 SFM II is added to 3×10^5 cells/mL. […] The cell number is measured using a hemocytometer and the culture solution is added to 3×10^5 cells/mL. […]

[2] = tested on: HEK293 (Viral Production Cells 2.0) producing AAV8; assay: Production of AAV in HEK293 in suspension culture system (AAV8 genome titer by real-time PCR, viral particles by ELISA, full capsid ratio); assay type: cell-based, human

SMILES: NCCC(=O)O [β-alanine]
- adenovirus titer [1]: Improvement
- AAV8 genome titer (relative) ([2]; Example 1, β-alanine final concentration 100 μM, vs medium without β-alanine = 100%, FIG. 1): improvements
- full capsid ratio (relative) ([2]; Example 1, β-alanine final concentration 100 μM, vs medium without β-alanine = 100%, FIG. 2): improvements
- AAV8 genome titer (relative) ([2]; Example 2, β-alanine final concentration 100 μM, FIG. 3): improvement
- AAV8 genome titer (relative) ([2]; Example 2, β-alanine final concentration 300 μM, FIG. 3): improvement
- virus count (capsid count (relative)) ([2]; Example 3, β-alanine final concentration 300 μM, FIG. 4): increase
- full capsid ratio (relative) ([2]; Example 3, β-alanine final concentration 300 μM, FIG. 5): improvement
- AAV8 genome titer (relative) ([2]; Example 5, β-alanine 300 μM alone, FIG. 8): improved

SMILES: Cl.Cl.Cl.NCCCCNCCCN [spermidine trihydrochloride]
- AAV8 genome titer (relative) ([2]; Example 4, spermidine trihydrochloride final concentration 30 μM or 100 μM, FIG. 6): improvements
- full capsid ratio (relative) ([2]; Example 4, spermidine trihydrochloride final concentration 30 μM or 100 μM, FIG. 7): improvements
- AAV8 genome titer (relative) ([2]; Example 5, spermidine trihydrochloride 200 μM alone, FIG. 8): improved

From patent US20260193602A1, “CULTURE MEDIUM COMPOSITION” (AJINOMOTO CO., INC., priority 2023, published 2026)
